# Like-named read-outs stand apart in the source and are kept apart here.
# Experiments:
# [1] = Pharmacokinetics of four ginsenosides in rat plasma after oral administration of PQ-AG and PQ extracts (UPLC-MS/MS); assay type: in vivo; settings: male SD rats, n = 6, mean ± SD; for AUC: male, SD, po
# Procedure: Chromatographic analysis was performed on a Waters Acquity UPLC system (Waters Corp., Milford, MA, USA). An ACQUITY UPLC BEH C18 (100 × 2.1 mm, 1.7 μm) column was used for all analytes. The column temperature was at 35°C. The mobile phase was composed of formic acid aqueous solution (A, 0.1%) and acetonitrile (B) at a gradient elution of 25% B at 0–0.5 min, 25%–50% B at 0.5–2.0 min, 50–60% B at 2.0–5.0 min, 60–25% B at 5.0–5.5 min, and 25% B at 5.5–7.0 min, with a flow rate of 0.2 mL/min.
# MS detection was performed using the Xevo Triple Quadruple MS (Waters Corp.) equipped with an ESI source in both positive and negative ionization modes. The experimental parameters were set as follows: CV 2.80 kV; desolvation temperature 350°C; source temperature […]; cone gas flow 50 L/h; and desolvation gas flow 650 L/h. The detection was carried out using the MRM scan mode. All experimental data were collected in centroid mode using Masslynx 4.1 software (Waters Corp., Milford, USA), and postacquisition quantitative analysis was conducted using Target Lynx program (Waters Corp., Milford, USA).
# Plasma specimens (200 μL) were mixed with IS solution (20 μL, 720 ng/mL) in an Eppendorf tube and centrifuged at 4, 000 rpm for 15 min at 4°C. Then, the supernatant was removed from plasma sample. Hydrochloric acid (4 μL) was added into 200 μL plasma sample, and then, the mixture was vortexed for 1 min. Waters OASIS HLB SPE C18 columns (Waters, USA) were used to remove the proteins in plasma samples, and it was preactivated by 3 mL methanol and 3 mL water. Then, 2 mL of 100% methanol was used to wash the column, and the eluate was collected and dried under nitrogen gas (45°C). Subsequently, 100 μL of 100% methanol was used to redissolve the residues, followed by centrifugation at 13, 000 rpm for 15 min at 4°C. Before UPLC-MS/MS analysis, the sample was finally filtered through a 0.22 μm membrane filter.
# DAS 3.2 software (Mathematical Pharmacology Professional Committee of China, Shanghai, China, 2011) was applied for the analysis of concentration-time data to investigate the pharmacokinetic parameters of four ginsenosides in various groups. Data were presented as the mean ± SD (standard deviation) with triplicate measurements. A significance level was set at P < 0.05.
# Male SD rats were randomly and evenly divided into two groups (n = 6 per group) in pharmacokinetic studies. To evaluate the compatible effect of AG upon PQ treatment, rats were given PQ at a dosage of 0.54 g/kg (equivalent to the amount of raw drug 0.54 g) in the PQ group. PQ-AG was combined with an equal proportion to prepare the mixed extract. The oral dosage in rats was 1.08 g/kg (equivalent to the amount of the raw drug including 0.54 g AG and 0.54 g PQ) in the PQ-AG group. Blood samples were collected at specific time points of 0, 0.25, 0.5, 1.0, 1.5, 2.0, 4.0, 6.0, 8.0, 12.0, 16.0, 24.0, and 48.0 h. All the plasma samples were obtained by centrifuging the blood samples at 3, 500 rpm for 10 min, then labeled and frozen at −80°C prior to analysis.
# [2] = Stability of the ginsenosides in rat plasma (QC samples); assay type: in vitro ADME; settings: for Re (%) Postpreparation / Recovery (%) Postpreparation: autosampler 4°C for 12 h; for Re (%) Short term / Recovery (%) Short term / Re (%) Freeze-thaw cycles / Recovery (%) Freeze-thaw cycles: rat plasma; for Re (%) Short term / Recovery (%) Short term: 1 month at −80°C; for Re (%) Freeze-thaw cycles / Recovery (%) Freeze-thaw cycles: three freeze-thaw cycles at −80°C
# Procedure: The standard stock solution was prepared in methanol with four ginsenosides at the final concentration of 1.14 mg/mL for Rb1, 0.10 mg/mL for Rb2, 0.78 mg/mL for Rd, and 1.58 mg/mL for Re. The working standard solution at required concentration was obtained by continuously diluting the stock solution. The IS stock solution was also prepared with methanol at a final concentration of 720 ng/mL. Calibration samples were prepared by mixing solutions of standard mixture, internal standard, and methanol with rat blank plasma at the final concentrations of 3.6, 7.2, 35.6, 71.2, 142.4, 284.8, 569.5, and 1, 139.0 ng/mL for Rb1, 1.6, 3.2, 6.3, 31.3, 62.5, 125.0, 250.0, and 500.0 ng/mL for Rb2, 1.2, 2.4, 4.9, 24.4, 48.8, 97.6, 195.1, and 390.2 ng/mL for Rd, and 2.5, 4.9, 9.9, 49.3, 98.6, 197.1, 394.3, and 788.5 ng/mL for Re. QC samples were also prepared with the same method at low, middle, and high concentrations (7.2, 142.4, and 911.4 ng/mL for Rb1, 3.2, 62.5, and 400.0 ng/mL for Rb2, 2.4, 48.8, and 312.2 ng/mL for Rd, 5.0, 98.6, and 630.8 ng/mL for Re). All solutions were stored at 4°C. The stability of the four analytes was determined by exposing plasma samples to QC at three concentration levels in six replicates. Samples were stored at −80°C for 1 month to assess the short-term storage stability. Freeze-thaw stability was performed after three freeze-thaw cycles at −80°C during three consecutive days. To evaluate the postpreparative stability, extracted QC samples were kept in the autosampler (4°C) for 12 h before analysis. The stability assessment of these samples was calibrated with freshly prepared standard as previously described.
# [3] = PQ group: oral PQ extract 0.54 g/kg
# [4] = PQ-AG group: oral PQ-AG extract 1.08 g/kg
# [5] = extracted high QC (911.4 Rb1, 400.0 Rb2, 312.2 Rd, 630.8 Re ng/mL)
# [6] = extracted low QC (7.2 Rb1, 3.2 Rb2, 2.4 Rd, 5.0 Re ng/mL)
# [7] = extracted middle QC (142.4 Rb1, 62.5 Rb2, 48.8 Rd, 98.6 Re ng/mL)
# [8] = high QC (911.4 Rb1, 400.0 Rb2, 312.2 Rd, 630.8 Re ng/mL)
# [9] = low QC (7.2 Rb1, 3.2 Rb2, 2.4 Rd, 5.0 Re ng/mL)
# [10] = middle QC (142.4 Rb1, 62.5 Rb2, 48.8 Rd, 98.6 Re ng/mL)
compound,measurement,setting,value
CC(C)=CCC[C@](C)(O[C@@H]1O[C@H](CO)[C@@H](O)[C@H](O)[C@H]1O)[C@H]1CC[C@]2(C)[C@@H]1[C@H](O)C[C@@H]1[C@@]3(C)CC[C@H](O)C(C)(C)[C@@H]3[C@@H](O[C@@H]3O[C@H](CO)[C@@H](O)[C@H](O)[C@H]3O[C@@H]3O[C@@H](C)[C@H](O)[C@@H](O)[C@H]3O)C[C@]12C [Re],Cmax,[1]; [3],355 ± 26.6 ng/mL
same,Tmax,[1]; [3],1.08 ± 0.2 h
same,half-life,[1]; [3],8.14 ± 1.2 h
same,Cmax,[1]; [4],460 ± 30.2 ng/mL
same,Tmax,[1]; [4],0.58 ± 0.2 h
same,half-life,[1]; [4],9.81 ± 2.15 h
same,AUC,"[1]; 0.54 g/kg, PQ group: oral PQ extract 0.54 g/kg, read-out: AUC0⟶t",2330 ± 214 ng·h/mL
same,AUC,"[1]; 0.54 g/kg, PQ group: oral PQ extract 0.54 g/kg, read-out: AUC0⟶∞",2380 ± 224 ng·h/mL
same,AUC,"[1]; 1.08 g/kg, PQ-AG group: oral PQ-AG extract 1.08 g/kg, read-out: AUC0⟶t",3430 ± 294 ng·h/mL
same,AUC,"[1]; 1.08 g/kg, PQ-AG group: oral PQ-AG extract 1.08 g/kg, read-out: AUC0⟶∞",3580 ± 396 ng·h/mL
same,Re (%) Postpreparation,[2]; [5],9.76%
same,Recovery (%) Postpreparation,[2]; [5],102.50%
same,Re (%) Postpreparation,[2]; [6],8.54%
same,Recovery (%) Postpreparation,[2]; [6],104.63%
same,Re (%) Postpreparation,[2]; [7],8.92%
same,Recovery (%) Postpreparation,[2]; [7],97.21%
same,Re (%) Short term,[2]; [8],8.40%
same,Recovery (%) Short term,[2]; [8],101.73%
same,Re (%) Freeze-thaw cycles,[2]; [8],−9.85%
same,Recovery (%) Freeze-thaw cycles,[2]; [8],97.39%
same,Re (%) Short term,[2]; [9],−10.71%
same,Recovery (%) Short term,[2]; [9],97.30%
same,Re (%) Freeze-thaw cycles,[2]; [9],7.33%
same,Recovery (%) Freeze-thaw cycles,[2]; [9],104.07%
same,Re (%) Short term,[2]; [10],12.11%
same,Recovery (%) Short term,[2]; [10],99.25%
same,Re (%) Freeze-thaw cycles,[2]; [10],7.53%
same,Recovery (%) Freeze-thaw cycles,[2]; [10],94.12%

# Source: publication PMC6875038, “Comparative Pharmacokinetic Studies of Four Ginsenosides in Rat Plasma by UPLC-MS/MS after Oral Administration of Panax quinquefolius-Acorus gramineus and Panax quinquefolius Extracts” (Journal of Analytical Methods in Chemistry, 2019)
